# Laboratory results: patent publication US20240383905A1, “FGFR INHIBITORS AND METHODS OF USE THEREOF” (3H PHARMACEUTICALS CO., LTD., priority 2021, published 2024)
# How the values were obtained:
# [1] = biological target: T1, FGFR2 (Homo sapiens, UniProt P21802); test: FGFR2 Biochemical Caliper Assay (KinEASE-TK kit); conditions: 0.07 nM FGFR2; compound incubated with protein 10 min, reaction 45 min at RT; read-out: FGFR2 Cliper IC50
# T1 construct: purchased Carna 08-134
# [2] = biological target: T2, FGFR1 (Homo sapiens, UniProt P11362); test: FGFR1 Biochemical Caliper Assay (KinEASE-TK kit); conditions: ratio FGFR1/FGFR2 of the biochemical assay
# T2 construct: purchased Carna 08-133
# T2 sequence (P11362 22-822): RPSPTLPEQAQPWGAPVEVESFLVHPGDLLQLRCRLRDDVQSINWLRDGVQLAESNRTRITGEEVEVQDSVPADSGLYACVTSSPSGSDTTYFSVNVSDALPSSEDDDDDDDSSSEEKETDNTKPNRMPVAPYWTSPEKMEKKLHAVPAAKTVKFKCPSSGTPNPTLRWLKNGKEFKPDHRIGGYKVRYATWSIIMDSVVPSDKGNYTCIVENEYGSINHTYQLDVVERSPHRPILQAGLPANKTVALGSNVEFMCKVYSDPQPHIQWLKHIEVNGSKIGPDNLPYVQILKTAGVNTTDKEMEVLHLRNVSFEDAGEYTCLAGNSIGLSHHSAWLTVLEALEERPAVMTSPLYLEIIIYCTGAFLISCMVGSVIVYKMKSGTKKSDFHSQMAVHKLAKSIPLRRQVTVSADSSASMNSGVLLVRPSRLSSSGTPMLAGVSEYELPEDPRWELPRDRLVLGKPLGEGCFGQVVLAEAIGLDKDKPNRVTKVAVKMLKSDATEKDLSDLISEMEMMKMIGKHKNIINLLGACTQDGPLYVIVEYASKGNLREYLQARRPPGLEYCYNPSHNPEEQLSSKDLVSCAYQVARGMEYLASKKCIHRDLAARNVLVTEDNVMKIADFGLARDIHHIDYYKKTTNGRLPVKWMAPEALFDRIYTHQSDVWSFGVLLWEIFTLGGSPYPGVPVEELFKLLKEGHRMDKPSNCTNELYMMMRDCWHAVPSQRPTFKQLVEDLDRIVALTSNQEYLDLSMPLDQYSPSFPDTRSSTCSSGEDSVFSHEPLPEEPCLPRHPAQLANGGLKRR
# Procedure, shortened: (§1)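 KinEASE-TK HTRF readout: enzyme at 0.2 nM (FGFR1, FGFR3) preincubated 10 min at RT with 10-point 3-fold compound dilutions before TK-substrate/ATP start.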
# [3] = biological target: T3, FGFR3 (Homo sapiens, UniProt P22607); test: FGFR3 Biochemical Caliper Assay (KinEASE-TK kit); conditions: ratio FGFR3/FGFR2 of the biochemical assay
# T3 construct: purchased Carna 08-135
# T3 sequence (P22607 23-806): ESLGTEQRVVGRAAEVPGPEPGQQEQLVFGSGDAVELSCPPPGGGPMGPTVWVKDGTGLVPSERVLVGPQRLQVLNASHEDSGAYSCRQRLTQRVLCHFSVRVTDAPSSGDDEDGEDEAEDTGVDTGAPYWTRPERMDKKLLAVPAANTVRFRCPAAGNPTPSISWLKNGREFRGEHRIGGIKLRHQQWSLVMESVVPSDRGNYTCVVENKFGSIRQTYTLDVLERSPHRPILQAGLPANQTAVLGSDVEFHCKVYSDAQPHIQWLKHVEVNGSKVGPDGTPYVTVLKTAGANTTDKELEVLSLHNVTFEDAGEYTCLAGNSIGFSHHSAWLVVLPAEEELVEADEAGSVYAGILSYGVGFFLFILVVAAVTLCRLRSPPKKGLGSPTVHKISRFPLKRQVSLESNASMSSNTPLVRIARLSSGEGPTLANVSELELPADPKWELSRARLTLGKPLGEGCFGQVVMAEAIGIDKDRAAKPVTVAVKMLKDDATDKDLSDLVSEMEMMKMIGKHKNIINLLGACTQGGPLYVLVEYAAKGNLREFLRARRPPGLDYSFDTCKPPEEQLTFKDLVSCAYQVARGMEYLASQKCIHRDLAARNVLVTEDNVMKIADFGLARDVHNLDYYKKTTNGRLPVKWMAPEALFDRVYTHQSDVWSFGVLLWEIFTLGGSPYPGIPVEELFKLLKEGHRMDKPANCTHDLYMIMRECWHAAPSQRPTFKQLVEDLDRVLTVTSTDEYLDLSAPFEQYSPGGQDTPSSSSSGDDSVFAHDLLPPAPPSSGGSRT
# Procedure, shortened: as §1
# [4] = tested on: SNU16 cells; test: SNU16 Cancer Cell Line Proliferation Assay (CellTiter-Glo); type: cell-based; conditions: Homo sapiens, SNU-16, 72 h
# Procedure, shortened: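 SNU16 cells at 5000/well exposed to 9-point 3-fold serial compound dilutions (DMSO control) for 72 h at 37 °C, 5% CO2. Viability read by luminescence; IC50 calculated from dose-response.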
# T1 sequence (P21802 22-821): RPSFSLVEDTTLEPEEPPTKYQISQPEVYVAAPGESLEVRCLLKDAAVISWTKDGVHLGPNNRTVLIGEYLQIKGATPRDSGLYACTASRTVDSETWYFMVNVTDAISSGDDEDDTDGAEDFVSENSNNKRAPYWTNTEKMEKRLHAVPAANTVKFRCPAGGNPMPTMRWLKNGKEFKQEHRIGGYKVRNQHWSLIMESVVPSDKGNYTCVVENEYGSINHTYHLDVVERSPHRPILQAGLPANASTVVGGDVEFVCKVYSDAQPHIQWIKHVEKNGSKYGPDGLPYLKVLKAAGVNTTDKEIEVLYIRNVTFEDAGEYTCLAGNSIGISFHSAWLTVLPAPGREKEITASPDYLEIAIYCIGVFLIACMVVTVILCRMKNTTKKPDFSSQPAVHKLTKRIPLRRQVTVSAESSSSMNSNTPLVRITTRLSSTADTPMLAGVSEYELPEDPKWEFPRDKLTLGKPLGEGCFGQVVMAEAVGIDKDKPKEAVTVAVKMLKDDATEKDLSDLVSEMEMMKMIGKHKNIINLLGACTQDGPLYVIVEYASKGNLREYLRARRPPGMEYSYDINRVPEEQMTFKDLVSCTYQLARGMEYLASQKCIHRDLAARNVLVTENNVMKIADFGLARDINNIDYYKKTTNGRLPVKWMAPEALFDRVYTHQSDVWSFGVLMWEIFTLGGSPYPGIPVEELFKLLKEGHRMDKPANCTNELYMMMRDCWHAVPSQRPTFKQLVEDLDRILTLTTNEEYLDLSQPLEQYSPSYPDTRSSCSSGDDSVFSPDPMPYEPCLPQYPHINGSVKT
Structure (SMILES),IC50 [1] [nM],Selectivity FGFR1/FGFR2 [2],Selectivity FGFR3/FGFR2 [3],IC50 [4] [nM]
"C=C(F)C(=O)Nc1ccc(-c2nn3ncnc(N)c3c2-c2ccc(C(=O)NC34CC(F)(C3)C4)c(OC)c2)c(F)c1 [Compound 427, 4-(4-amino-6-(2-fluoro-4-(2-fluoroacryl-amido)phenyl)pyrazolo[5,1-f][1,2,4]triazin-5-yl)-N-(3-fluorobicyclo [1.1.1]pentan-1-yl)-2-methoxybenzamide]",< 5,A+ (Selectivity of FGFR1/FGFR2 greater or equal to 500),A (Selectivity of FGFR3/FGFR2 less than 150 but greater than or equal to 100),≤ 10
"C=C(F)C(=O)Nc1ccc(-c2nn3ncnc(N)c3c2-c2ccc(C(=O)NC3CCC3)c(OC)c2)cc1 [Compound 95, 4-(4-amino-6-(4-(2-fluoroacrylamido)phe-nyl)pyrazolo[5,1-f][1,2,4]triazin-5-yl)-N-cyclobutyl-2-methoxybenzamide]",> 10,A+ (Selectivity of FGFR1/FGFR2 greater or equal to 500),A+ (Selectivity of FGFR3/FGFR2 greater or equal to 150),≤ 10
"C=CC(=O)Nc1ccc(-c2nn3ncnc(N)c3c2-c2ccc(C(=O)NCCF)c(OC)c2)cc1 [Compound 194, 4-(6-(4-acrylamidophenyl)-4-aminopyrazolo[5,1-f][1,2,4]triazin-5-yl)-N-(2-fluoroethyl)-2-methoxybenzamide]",5 to 10,B (Selectivity of FGFR1/FGFR2 less than 300 but greater than or equal to 200),A+ (Selectivity of FGFR3/FGFR2 greater or equal to 150),≤ 10
"C=CC(=O)Nc1ccc(-c2nn3ncnc(N)c3c2-c2ccc(C(=O)NC3CCC3)c(OC)c2)cc1 [Compound 26, 4-(6-(4-acrylamidophenyl)-4-aminopyrazolo[5,1-f][1,2,4]triazin-5-yl)-N-cyclobutyl-2-methoxybenzamide]",< 5,A (Selectivity of FGFR1/FGFR2 less than 500 but greater than or equal to 300),B (Selectivity of FGFR3/FGFR2 less than 100 but greater than or equal to 25),≤ 10
"C=C(F)C(=O)Nc1ccc(-c2nn3ncnc(N)c3c2-c2ccc(C(=O)NC34CC(C3)C4)c(OC)c2)c(OC)c1 [Compound 426, 4-(4-amino-6-(4-(2-fluoroacrylamido)-2-methoxyphenyl)pyrazolo[5,1-f][1,2,4]triazin-5-yl)-N-(bicyclo[1.1.1]pentan-1-yl)-2-methoxybenzamide]",< 5,A+ (Selectivity of FGFR1/FGFR2 greater or equal to 500),A (Selectivity of FGFR3/FGFR2 less than 150 but greater than or equal to 100),≤ 10
"C=CC(=O)Nc1ccc(-c2c(-c3ccc(C(=O)NC4CCCC4)c(OC)c3)c3c(N)ncc(C#N)c3n2C)cc1 [Compound 109, 4-(2-(4-acrylamidophenyl)-4-amino-7-cyano-1-methyl-1H-pyrrolo[3,2-c]pyridin-3-yl)-N-cyclopentyl-2-methoxybenzamide]",< 5,A+ (Selectivity of FGFR1/FGFR2 greater or equal to 500),B (Selectivity of FGFR3/FGFR2 less than 100 but greater than or equal to 25),≤ 10
"C=C(C)C(=O)Nc1ccc(-c2c(-c3ccc(Oc4nccc(C)n4)cc3)c3c(N)ncc(C#N)c3n2C)c(C)c1 [Compound 488, N-(4-(4-amino-7-cyano-1-methyl-3-(4-((4-methylpyrimidin-2-yl)oxy)phenyl)-1H-pyrrolo[3,2-c]pyridin-2-yl)-3-methylphenyl)methacrylamide]",> 10,A+ (Selectivity of FGFR1/FGFR2 greater or equal to 500),A+ (Selectivity of FGFR3/FGFR2 greater or equal to 150),≤ 10
"C=C(F)C(=O)Nc1ccc(-c2[nH]c3c(C#N)cnc(N)c3c2-c2ccc(C(=O)NC3(C)CC3)c(OC)c2)cc1 [Compound 321, 4-(4-amino-7-cyano-2-(4-(2-fluoroacrylamido)phe-ny1)-1H-pyrrolo[3,2-c]pyridin-3-yl)-2-methoxy-N-(1-methylcyclopropyl)benzamide]",5 to 10,C (Selectivity of FGFR1/FGFR2 less than 200 but greater than or equal to 100),A+ (Selectivity of FGFR3/FGFR2 greater or equal to 150),≤ 10
C=C(C)C(=O)Nc1ccc(-c2nn3ncnc(N)c3c2-c2ccc(C(=O)NC3(C(F)(F)F)CC3)c(OC)c2)c(F)c1 [Compound 429],5 to 10,A+ (Selectivity of FGFR1/FGFR2 greater or equal to 500),A+ (Selectivity of FGFR3/FGFR2 greater or equal to 150),≤ 10
"C=C(F)C(=O)Nc1ccc(-c2c(-c3ccc(C(=O)NC4CC4)c(OC)c3)c3c(N)ncc(C#N)c3n2C)c(OC)c1 [Compound 171, 4-(4-amino-7-cyano-2-(4-(2-fluoroacrylamido)-2-methoxyphenyl)-1-methyl-1H-pyrrolo[3,2-c]pyridin-3-yl)-N-cyclopropyl-2-methoxybenzamide]",< 5,C (Selectivity of FGFR1/FGFR2 less than 200 but greater than or equal to 100),B (Selectivity of FGFR3/FGFR2 less than 100 but greater than or equal to 25),≤ 10
"C=C(F)C(=O)Nc1ccc(-c2nn3ncnc(N)c3c2-c2ccc(Oc3cccc(C)n3)c(F)c2)c(C)c1 [Compound 439, N-(4-(4-amino-5-(3-fluoro-4-((6-methylpyridin-2-yl)oxy)phenyl)pyrazolo [5,1-f][1,2,4]triazin-6-yl)-3-methylphenyl)-2-fluoroacrylamide]",< 5,C (Selectivity of FGFR1/FGFR2 less than 200 but greater than or equal to 100),B (Selectivity of FGFR3/FGFR2 less than 100 but greater than or equal to 25),≤ 10
"C=CC(=O)Nc1ccc(-c2c(-c3ccc(C(=O)NCC(F)F)c(OC)c3)c3c(N)ncc(C#N)c3n2C)cc1 [Compound 198, 4-(2-(4-acrylamidophenyl)-4-amino-7-cyano-1-methyl-1H-pyrrolo[3,2-c]pyridin-3-yl)-N-(2,2-difluoroethyl)-2-methoxybenzamide]",< 5,A (Selectivity of FGFR1/FGFR2 less than 500 but greater than or equal to 300),A+ (Selectivity of FGFR3/FGFR2 greater or equal to 150),≤ 10
C=C(F)C(=O)Nc1ccc(-c2nn3ncnc(N)c3c2-c2ccc(C(=O)NCC(F)F)c(OC)c2)c(F)c1 [Compound 289],> 10,C (Selectivity of FGFR1/FGFR2 less than 200 but greater than or equal to 100),B (Selectivity of FGFR3/FGFR2 less than 100 but greater than or equal to 25),≤ 10
C=CC(=O)Nc1ccc(-n2nc3c(=O)[nH]nc(N)c3c2-c2ccc(Oc3cccc(C)n3)c(OC)c2)cc1 [Compound 115],5 to 10,C (Selectivity of FGFR1/FGFR2 less than 200 but greater than or equal to 100),A+ (Selectivity of FGFR3/FGFR2 greater or equal to 150),10 to 50
C=CC(=O)Nc1ccc(-c2nn3ncnc(N)c3c2-c2ccc(Oc3nccc(N)n3)c(F)c2)cc1 [Compound 428],> 10,A+ (Selectivity of FGFR1/FGFR2 greater or equal to 500),A+ (Selectivity of FGFR3/FGFR2 greater or equal to 150),10 to 50
"C=CC(=O)Nc1ccc(-c2nn3ncnc(N)c3c2-c2ccc(C(=O)NC3CCCC3)c(OC)c2)cc1 [Compound 55, 4-(6-(4-acrylamidophenyl)-4-aminopyrazolo[5,1-f] [1,2,4]triazin-5-yl)-N-cyclopentyl-2-methoxybenzamide]",< 5,A+ (Selectivity of FGFR1/FGFR2 greater or equal to 500),A (Selectivity of FGFR3/FGFR2 less than 150 but greater than or equal to 100),≤ 10
"C=CC(=O)Nc1ccc(-c2c(-c3ccc(C(=O)NC4CCC4)cc3)c3c(N)ncc(C#N)c3n2C)cc1 [Compound 65, 4-(2-(4-acrylamidophenyl)-4-amino-7-cyano-1-methyl-1H-pyrrolo[3,2-c]pyridin-3-yl)-N-cyclobutylbenzamide]",< 5,A (Selectivity of FGFR1/FGFR2 less than 500 but greater than or equal to 300),A+ (Selectivity of FGFR3/FGFR2 greater or equal to 150),≤ 10
C=CC(=O)Nc1ccc(-c2c(-c3ccc(C(=O)NCC4CC4)c(OC)c3)c3c(N)ncc(C#N)c3n2C)cc1 [Compound 170],< 5,A+ (Selectivity of FGFR1/FGFR2 greater or equal to 500),B (Selectivity of FGFR3/FGFR2 less than 100 but greater than or equal to 25),≤ 10
C=C(F)C(=O)Nc1ccc(-c2nn3ncnc(N)c3c2-c2ccc(C(=O)NC3(C(F)(F)F)CC3)c(OC)c2)c(C(F)(F)F)c1 [Compound 432],< 5,B (Selectivity of FGFR1/FGFR2 less than 300 but greater than or equal to 200),B (Selectivity of FGFR3/FGFR2 less than 100 but greater than or equal to 25),≤ 10
